Where two headings read alike, the source gives them in different places.
What was measured:
[1] = target: JAK3 enzyme (Homo sapiens (Human), UniProt P52333); assay: JAK Caliper Enzyme Assay at 4 μM or 1 mM ATP; format: biochemical
[2] = system: IL-15 induced STAT5 phosphorylation in human whole blood lymphocytes; assay: HWB IL-15 induced STAT5 phosphorylation assay; format: cell-based; details: Lymphocyte, IL-15 stimulated, read-out: HWB-IL15-pSTAT5 IC50
Experimental: HWB IL-15 Induced STAT5 Phosphorylation Assay
After mixing and incubating for 45 minutes at 37° C., 5 μl D-PBS (unstimulated control) or 20× stocks of 5 μl human IL-15 (final concentration is 50 ng/ml) were added, and mixed three times. After incubating 15 minutes at 37° C., 1× Lyse/Fix Buffer (BD Phosflow 5× Lyse/Fix Buffer) was added to all wells at 1000 μl/well, then incubated for 20 minutes at 37° C. and spun 5 mins at 1200 rpm. […] Following incubating at 4° C. over night, all the samples were transferred to 96-well polypropylene U-bottom plate, and checked by flow cytometry gated on total lymphocytes.

[3] = read-out: JAK3 (4 μM ATP) IC50, 4 μM ATP
[4] = read-out: JAK3 (1 mM ATP) IC50, 1 mM ATP

Sequence of JAK3 enzyme (P52333 whole entry, species assumed): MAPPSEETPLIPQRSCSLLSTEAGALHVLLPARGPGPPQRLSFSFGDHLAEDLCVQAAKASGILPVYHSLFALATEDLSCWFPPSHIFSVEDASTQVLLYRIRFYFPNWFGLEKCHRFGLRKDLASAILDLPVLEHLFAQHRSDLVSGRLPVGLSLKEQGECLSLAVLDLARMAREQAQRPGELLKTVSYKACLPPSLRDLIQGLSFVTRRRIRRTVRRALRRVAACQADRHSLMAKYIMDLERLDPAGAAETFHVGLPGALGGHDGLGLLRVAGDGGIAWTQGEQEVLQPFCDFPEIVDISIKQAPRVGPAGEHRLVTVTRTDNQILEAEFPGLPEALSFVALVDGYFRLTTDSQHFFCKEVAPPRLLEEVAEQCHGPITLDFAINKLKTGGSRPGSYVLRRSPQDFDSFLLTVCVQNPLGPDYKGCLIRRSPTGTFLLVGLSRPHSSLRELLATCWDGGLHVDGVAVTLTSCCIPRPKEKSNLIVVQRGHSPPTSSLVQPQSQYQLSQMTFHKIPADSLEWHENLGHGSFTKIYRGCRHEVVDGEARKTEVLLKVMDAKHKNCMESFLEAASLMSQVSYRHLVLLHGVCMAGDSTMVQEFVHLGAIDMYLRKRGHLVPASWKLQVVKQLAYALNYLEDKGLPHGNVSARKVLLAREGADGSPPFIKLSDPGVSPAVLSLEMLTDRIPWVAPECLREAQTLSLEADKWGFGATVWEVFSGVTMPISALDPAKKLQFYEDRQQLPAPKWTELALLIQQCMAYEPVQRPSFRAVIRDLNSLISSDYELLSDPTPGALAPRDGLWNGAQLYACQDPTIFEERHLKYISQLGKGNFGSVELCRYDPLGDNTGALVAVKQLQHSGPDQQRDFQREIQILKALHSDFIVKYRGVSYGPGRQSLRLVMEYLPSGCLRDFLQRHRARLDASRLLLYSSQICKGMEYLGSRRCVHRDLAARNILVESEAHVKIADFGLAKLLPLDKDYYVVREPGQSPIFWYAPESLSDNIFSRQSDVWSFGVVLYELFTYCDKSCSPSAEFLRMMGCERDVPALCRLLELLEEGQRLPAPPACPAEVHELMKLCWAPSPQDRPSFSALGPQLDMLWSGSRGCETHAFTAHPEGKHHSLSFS

IC50 [1, 3]	IC50 [1, 4]	IC50 [2]	Structure (SMILES)
1.5 nM	210 nM	> 10000 nM	C=CC(=O)N[C@H]1C[C@@H](Nc2cnc3[nH]cc(C(=O)NC(C)C)c3n2)C1 [Example 184, 2-{[cis-3-(acryloylamino)cyclobutyl]amino}-N-(propan-2-yl)-5H-pyrrolo[2,3-b]pyrazine-7-carboxamide]
0.1 nM	19.6 nM	> 10000 nM	C=CC(=O)N1CCC(Nc2cnc3[nH]cc(-c4cncc(C#N)c4)c3n2)CC1 [Example 206, 5-{2-[(1-acryloylpiperidin-4-yl)amino]-5H-pyrrolo[2,3-b]pyrazin-7-yl}pyridine-3-carbonitrile]
0.8 nM	69.4 nM	> 10000 nM	C=CC(=O)N1CCC(Oc2cnc3[nH]cc(-c4cncc(F)c4)c3n2)CC1 [Example 213, 1-(4-{[7-(5-fluoropyridin-3-yl)-5H-pyrrolo[2,3-b]pyrazin-2-yl]oxy}piperidin-1-yl)prop-2-en-1-one]
1.1 nM	198 nM	> 10000 nM	C=CC(=O)N1C[C@@H]2C(Nc3cnc4[nH]cc(C(=O)NC(C)C)c4n3)[C@@H]2C1 (stereo partly drawn) [Example 189, 2-{[(1R,5S,6s)-3-acryloyl-3-azabicyclo[3.1.0]hex-6-yl]amino}-N-(propan-2-yl)-5H-pyrrolo[2,3-b]pyrazine-7-carboxamide]
0.8 nM	70.4 nM	> 10000 nM	C=CC(=O)N1CCC(Oc2cnc3[nH]cc(-c4ccnc(C)c4)c3n2)CC1 [Example 220, 1-(4-{[7-(2-methylpyridin-4-yl)-5H-pyrrolo[2,3-b]pyrazin-2-yl]oxy}piperidin-1-yl)prop-2-en-1-one]
0.4 nM	115 nM	> 10000 nM	C=CC(=O)N1CCC(Oc2cnc3[nH]cc(C(=O)NC(C)(C)C)c3n2)CC1 [Example 338, 2-((1-Acryloylpiperidin-4-yl)oxy)-N-(tert-butyl)-5H-pyrrolo[2,3-b]pyrazine-7-carboxamide]
1.2 nM	101 nM	> 10000 nM	C=CC(=O)N1CCC(Nc2cnc3[nH]cc(-c4ccc(C)nc4)c3n2)CC1 [Example 199, 1-(4-{[7-(6-methylpyridin-3-yl)-5H-pyrrolo[2,3-b]pyrazin-2-yl]amino}piperidin-1-yl)prop-2-en-1-one]
0.7 nM	42.4 nM	> 10000 nM	C=CC(=O)N1CCC(Oc2cnc3[nH]cc(-c4cccnc4F)c3n2)CC1 [Example 217, 1-(4-{[7-(2-fluoropyridin-3-yl)-5H-pyrrolo[2,3-b]pyrazin-2-yl]oxy}piperidin-1-yl)prop-2-en-1-one]
